Test results as given in patent US20220306659A1, “COMPOUND INHIBITING AND INDUCING DEGRADATION OF EGFR AND ALK” (BEIJING TIDE PHARMACEUTICAL CO., LTD., priority 2019, published 2022).

Tests used:
[1] = target: Ba/F3(EGFR^Del19/T790M/C797S) cells (Homo sapiens, UniProt P00533, DEL746-750/T790M/C797S, cells depend on it); test: Assay of activity on Ba/F3 cells (CTG, 72 h); assay type: cell-based; conditions: read-out: IC50 (nM) Ba/F3 (EGFR^Del19/T790M/C797S)
Outline: (§1)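 Ba/F3 cells dependent on each EGFR triple mutant were exposed to 3-fold compound dilutions for 72 h at 37° C, 5% CO2, with CellTiter-Glo luminescence as the read-out.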

[2] = target: Ba/F3(EGFR^L858R/T790M/C797S) cells (Homo sapiens, UniProt P00533, T790M/C797S/L858R, cells depend on it); test: Assay of activity on Ba/F3 cells (CTG, 72 h); assay type: cell-based; conditions: read-out: IC50 (nM) Ba/F3 (EGFR^L858R/T790M/C797S)
Ba/F3(EGFR^L858R/T790M/C797S) cells, sequence (P00533 whole entry T790M/C797S/L858R): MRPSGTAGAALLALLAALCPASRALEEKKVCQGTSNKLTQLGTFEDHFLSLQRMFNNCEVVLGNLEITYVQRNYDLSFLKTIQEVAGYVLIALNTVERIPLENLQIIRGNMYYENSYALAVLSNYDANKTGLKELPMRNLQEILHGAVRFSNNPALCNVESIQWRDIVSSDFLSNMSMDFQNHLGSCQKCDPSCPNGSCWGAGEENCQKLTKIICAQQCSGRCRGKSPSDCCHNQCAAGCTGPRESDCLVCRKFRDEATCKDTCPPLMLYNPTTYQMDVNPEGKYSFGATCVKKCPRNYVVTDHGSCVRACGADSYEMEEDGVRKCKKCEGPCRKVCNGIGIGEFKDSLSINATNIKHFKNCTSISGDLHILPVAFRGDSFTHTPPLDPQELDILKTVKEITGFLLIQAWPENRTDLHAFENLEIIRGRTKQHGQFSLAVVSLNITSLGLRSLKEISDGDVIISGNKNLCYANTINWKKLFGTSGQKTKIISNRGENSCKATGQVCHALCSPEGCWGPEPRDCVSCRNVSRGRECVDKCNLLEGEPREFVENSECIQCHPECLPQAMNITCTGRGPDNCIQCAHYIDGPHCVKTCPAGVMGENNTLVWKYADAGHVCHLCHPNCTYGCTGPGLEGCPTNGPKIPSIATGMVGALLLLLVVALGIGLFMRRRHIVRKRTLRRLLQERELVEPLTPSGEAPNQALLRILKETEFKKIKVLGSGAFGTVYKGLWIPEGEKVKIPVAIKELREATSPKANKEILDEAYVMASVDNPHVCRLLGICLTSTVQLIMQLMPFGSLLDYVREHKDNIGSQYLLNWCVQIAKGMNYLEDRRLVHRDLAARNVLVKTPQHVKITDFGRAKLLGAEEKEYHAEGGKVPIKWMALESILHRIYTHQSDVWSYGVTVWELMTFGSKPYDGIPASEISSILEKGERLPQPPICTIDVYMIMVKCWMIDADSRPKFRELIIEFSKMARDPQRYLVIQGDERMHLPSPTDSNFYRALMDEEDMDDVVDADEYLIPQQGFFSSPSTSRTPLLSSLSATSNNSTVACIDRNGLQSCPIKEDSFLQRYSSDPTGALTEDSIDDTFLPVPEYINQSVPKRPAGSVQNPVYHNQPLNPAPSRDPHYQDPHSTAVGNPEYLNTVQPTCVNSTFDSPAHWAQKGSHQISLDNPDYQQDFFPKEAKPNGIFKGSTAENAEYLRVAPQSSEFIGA
Outline: as §1

Ba/F3(EML4-ALK) cells = target: T1, Ba/F3(EML4-ALK) cells (Homo sapiens, UniProt Q9UM73); test: Assay of activity on Ba/F3(EML4-ALK) cells (CTG, 72 h); assay type: cell-based; conditions: read-out: IC50 (nM) Ba/F3(EML4-ALK)
T1 construct: fused on or other part: Q9HC35 (Echinoderm microtubule-associated protein-like 4)
T1 sequence (Q9UM73 whole entry, change not shown, the tested form may be a part): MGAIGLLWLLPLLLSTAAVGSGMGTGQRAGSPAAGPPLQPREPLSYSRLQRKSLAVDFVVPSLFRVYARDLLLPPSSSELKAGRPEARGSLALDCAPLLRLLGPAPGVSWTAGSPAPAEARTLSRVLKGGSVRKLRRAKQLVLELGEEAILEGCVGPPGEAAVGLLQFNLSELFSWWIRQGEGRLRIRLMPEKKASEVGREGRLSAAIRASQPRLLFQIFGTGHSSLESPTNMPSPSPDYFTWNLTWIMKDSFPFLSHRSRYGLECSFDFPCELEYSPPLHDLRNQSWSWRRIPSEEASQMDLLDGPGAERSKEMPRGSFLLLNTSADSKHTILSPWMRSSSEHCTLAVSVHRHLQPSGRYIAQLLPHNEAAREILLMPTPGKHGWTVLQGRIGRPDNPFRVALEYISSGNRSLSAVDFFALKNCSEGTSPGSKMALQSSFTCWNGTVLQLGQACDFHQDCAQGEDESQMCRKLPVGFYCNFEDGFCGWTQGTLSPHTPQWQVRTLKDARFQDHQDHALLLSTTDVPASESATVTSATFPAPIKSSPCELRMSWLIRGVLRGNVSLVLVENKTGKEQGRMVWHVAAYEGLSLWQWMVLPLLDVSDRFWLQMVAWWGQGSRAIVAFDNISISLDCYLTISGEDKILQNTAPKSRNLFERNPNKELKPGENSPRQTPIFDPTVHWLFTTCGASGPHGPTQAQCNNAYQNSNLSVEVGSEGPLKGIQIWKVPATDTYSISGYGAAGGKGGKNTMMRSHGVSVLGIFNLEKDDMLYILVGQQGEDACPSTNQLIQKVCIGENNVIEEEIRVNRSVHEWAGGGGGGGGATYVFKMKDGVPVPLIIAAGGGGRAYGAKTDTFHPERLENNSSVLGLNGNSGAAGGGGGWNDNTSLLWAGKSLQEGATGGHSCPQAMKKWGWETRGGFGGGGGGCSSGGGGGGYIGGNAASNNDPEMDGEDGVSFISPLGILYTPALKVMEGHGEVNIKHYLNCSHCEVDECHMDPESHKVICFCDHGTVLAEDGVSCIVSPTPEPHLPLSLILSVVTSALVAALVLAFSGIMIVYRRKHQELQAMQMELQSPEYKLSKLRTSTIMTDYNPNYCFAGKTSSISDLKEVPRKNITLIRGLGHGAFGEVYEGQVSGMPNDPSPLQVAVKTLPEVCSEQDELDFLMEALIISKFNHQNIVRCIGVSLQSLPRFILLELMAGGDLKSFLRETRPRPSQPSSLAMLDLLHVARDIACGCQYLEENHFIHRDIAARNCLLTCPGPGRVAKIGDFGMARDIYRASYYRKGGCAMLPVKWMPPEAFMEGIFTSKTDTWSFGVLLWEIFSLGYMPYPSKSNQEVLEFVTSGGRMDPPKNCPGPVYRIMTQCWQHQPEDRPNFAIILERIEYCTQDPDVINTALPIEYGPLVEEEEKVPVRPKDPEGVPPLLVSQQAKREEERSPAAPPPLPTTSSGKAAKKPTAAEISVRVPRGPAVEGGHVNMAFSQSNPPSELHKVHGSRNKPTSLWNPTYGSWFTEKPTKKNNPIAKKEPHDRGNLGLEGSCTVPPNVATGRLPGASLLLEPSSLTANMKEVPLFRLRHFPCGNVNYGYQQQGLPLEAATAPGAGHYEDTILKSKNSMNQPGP
Description: Assay of activity on Ba/F3(EML4-ALK) cells
(1) Ba/F3(EML4-ALK) cells were cultured according to the requirements of ATCC, incubated in an incubator at 37° C. and 5% CO2, and analyzed by index; cells with viability of >90% can be used in the assay, and cells were seeded in a 384-well plate (PerkinElmer, 6007680) with 700 cells/well, 30 μl/well.
(2) A compound stock solution was prepared, and diluted 3× to obtain a compound dilution; 30 nL of the serial dilution was added to a 384-well plate (784075, Greiner) by Echo 550, and cells were incubated in an incubator at 37° C. and 5% CO2 for 72 h.
(3) 30 μL of CTG was added to each well, and the 384-well plate was shaken on a Plate shaker (QILINBEIER, QB-9002); the 384-well plate was incubated in the dark at 37° C. and 5% CO2 for 30 min, and the chemiluminescence value was read by Envision (PerkinElmer, EnVision 2104).
The percent inhibition rate (% inhibition) was calculated by the formula below
LUMcmpd: Luminescence value of assay compound.
LUMpositive: Average LUM value of positive drug at a concentration of 10 μM.
LUM^vehicle: Average LUM value of negative control group without drug treatment.
(§2) The nonlinear regression curve (dose response-variable slope) between the value of inhibition rate (%) and the logarithm of compound concentration was fitted with graphpad prism 8.0, the effect dose curve of compound was drawn, and the IC50 value was calculated.
Y=Bottom+(Top−Bottom)/(1+10^((LogIC50−X)*HillSlope))
X-axis: logarithm of compound concentration; Y axis: inhibition rate (% inhibition).

EGFR^L858R/T790M/C797S = EGFR^L858R/T790M/C797S (Homo sapiens, UniProt P00533, C797S/L858R/T790M); test: EGFR inhibitory activity assay (TK-substrate-biotin/ATP, 665/615 ratio); assay type: biochemical; conditions: kinase inhibition
Description: EGFR Inhibitory Activity Assay
(1) A compound stock solution was prepared and diluted 3× to obtain a compound dilution; 10 nL of the compound dilution was transferred to a 384-well plate (784075, Greiner) by Echo 550;
(2) The plate was sealed, and centrifuged at 1,000 g for 1 min;
(4) 5 μl of the 2×EGFR protein working solution was added to the 384-well plate from step (2), centrifuged at 1,000 g for 30 s, and allowed to stand at room temperature (mixed thoroughly) for 10 min;
(6) 5 µL of the TK-substrate-biotin and ATP (the mixture prepared in step (5)) was added to the 384-well plate from step (4) to initiate the reaction;
(7) The mixture was centrifuged at 1,000 g for 30 s; the plate was sealed, and allowed to stand (and reacted) at room temperature for 40 min;
(8) 4×Sa-XL 665 and TK-antibody-Cryptate were prepared with detection buffer;
(9) 5 µL of the Sa-XL 665 and 5 µL of the TK-antibody-Cryptate were added successively to the 384-well plate from step (7);
(10) The mixture was centrifuged at 1,000 g for 30 s, and allowed to stand (reacted) at room temperature for 1 h;
(11) The fluorescence values were read at 615 nm and 665 nm by enzyme labeling instrument (PerkinElmer, 74785).
The ratio (665/615) of each well was calculated.
Formula of inhibition rate (%): […]
Ratiocmpd: Ratio (665/615) value of assay compound.
Ratiopositive: Average ratio (665/615) value of positive control.
Ratiovehicle: Average ratio (665/615) value of negative control.
as §2

Ba/F3(EGFR^Del19/T790M/C797S) cells, sequence (P00533 with tags, fused parts or gaps DEL746-750/T790M/C797S): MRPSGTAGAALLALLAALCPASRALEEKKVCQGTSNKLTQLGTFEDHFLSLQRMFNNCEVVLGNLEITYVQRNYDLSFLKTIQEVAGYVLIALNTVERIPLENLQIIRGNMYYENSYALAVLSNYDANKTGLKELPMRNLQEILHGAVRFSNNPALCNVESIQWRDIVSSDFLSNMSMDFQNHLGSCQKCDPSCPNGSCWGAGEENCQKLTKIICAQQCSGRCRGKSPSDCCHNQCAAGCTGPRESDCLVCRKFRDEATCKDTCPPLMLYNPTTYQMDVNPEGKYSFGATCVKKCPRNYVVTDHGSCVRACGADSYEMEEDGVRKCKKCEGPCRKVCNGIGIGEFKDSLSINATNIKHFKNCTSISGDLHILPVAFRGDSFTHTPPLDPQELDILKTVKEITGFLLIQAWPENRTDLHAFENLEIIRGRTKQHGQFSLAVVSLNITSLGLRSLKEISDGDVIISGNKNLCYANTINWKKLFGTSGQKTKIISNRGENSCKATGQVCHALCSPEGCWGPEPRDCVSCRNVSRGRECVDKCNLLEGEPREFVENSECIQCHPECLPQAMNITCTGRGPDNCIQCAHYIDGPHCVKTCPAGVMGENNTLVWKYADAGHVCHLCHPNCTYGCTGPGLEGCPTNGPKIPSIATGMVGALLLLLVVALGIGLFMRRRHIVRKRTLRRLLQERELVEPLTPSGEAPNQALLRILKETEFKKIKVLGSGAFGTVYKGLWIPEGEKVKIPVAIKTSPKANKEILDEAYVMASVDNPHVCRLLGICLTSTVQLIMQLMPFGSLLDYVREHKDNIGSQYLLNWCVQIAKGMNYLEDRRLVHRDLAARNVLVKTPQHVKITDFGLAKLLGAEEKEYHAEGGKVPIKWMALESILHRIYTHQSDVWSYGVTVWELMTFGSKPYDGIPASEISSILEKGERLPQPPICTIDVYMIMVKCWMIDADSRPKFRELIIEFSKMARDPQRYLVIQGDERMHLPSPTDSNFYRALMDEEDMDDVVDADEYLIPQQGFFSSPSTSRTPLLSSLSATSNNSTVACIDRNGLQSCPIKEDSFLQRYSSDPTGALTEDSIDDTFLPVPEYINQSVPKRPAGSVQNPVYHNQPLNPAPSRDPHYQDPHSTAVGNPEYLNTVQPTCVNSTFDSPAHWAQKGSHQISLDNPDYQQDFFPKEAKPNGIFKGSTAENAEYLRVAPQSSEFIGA

Compound: COc1cc(N2CCC3(CCN(CCCCCCCOc4cccc5c4C(=O)N(C4CCC(=O)NC4=O)C5=O)CC3)CC2)c(C)cc1Nc1ncc(Br)c(Nc2ccc3nccnc3c2P(C)(C)=O)n1 (centres unmarked) [Compound C47, 4-((7-(9-(4-((5-bromo-4-((5-(dimethylphosphoryl)quinoxalin-6-yl)amino)pyrimidin-2-yl)amino)-5-methoxy-2-methylphenyl)-3,9-diazaspiro[5.5]undecan-3-yl)heptyl)oxy)-2-(2,6-dioxopiperidin-3-yl)isoindoline-1,3-dione]
- GI50 [1]: 101 to 200 nM
- GI50 [2]: 101 to 200 nM
- GI50 (Ba/F3(EML4-ALK) cells): 101 to 200 nM

Compound: COc1cc(N2CCC(N3CCN(CCCCCCCOc4cccc5c4C(=O)N(C4CCC(=O)NC4=O)C5=O)CC3)CC2)c(C)cc1Nc1ncc(Br)c(Nc2ccc3nccnc3c2P(C)(C)=O)n1 (centres unmarked) [Compound C158, 4-((7-(4-(1-(4-((5-bromo-4-((5-(dimethylphosphoryl)quinoxalin-6-yl)amino)pyrimidin-2-yl)amino)-5-methoxy-2-methylphenyl)piperidin-4-yl)piperazin-1-yl)heptyl)oxy)-2-(2,6-dioxopiperidin-3-yl)isoindoline-1,3-dione]
- GI50 [1]: 1 to 100 nM
- GI50 [2]: 101 to 200 nM
- GI50 (Ba/F3(EML4-ALK) cells): 201 to 300 nM

Compound: [2H]C([2H])(CCCCCCOc1cccc2c1C(=O)N(C1CCC(=O)NC1=O)C2=O)N1CCN(C2CCN(c3ccc(Nc4ncc(Cl)c(Nc5ccccc5P(C)(C)=O)n4)c(OC)c3)CC2)CC1 (centres unmarked) [Compound C164, 4-((7-(4-(1-(4-((5-chloro-4-((2-(dimethylphosphoryl)phenyl)amino)pyrimidin-2-yl)amino)-3-methoxyphenyl)piperidin-4-yl)piperazin-1-yl)heptyl-7,7-dideuterium)oxy)-2-(2,6-dioxopiperidin-3-yl)isoindoline-1,3-dione]
- IC50 (EGFR^L858R/T790M/C797S): 1 to 100 nM
- GI50 [1]: 1 to 100 nM
- GI50 (Ba/F3(EML4-ALK) cells): 1 to 100 nM

Compound: COc1cc(N2CCC(N3CCN(CCCCCCCC#Cc4cccc5c4CN(C4CCC(=O)NC4=O)C5=O)CC3)CC2)c(C)cc1Nc1ncc(Br)c(Nc2ccc3nccnc3c2P(C)(C)=O)n1 (centres unmarked) [Compound C183, 3-(4-(9-(4-(1-(4-((5-bromo-4-((5-(dimethylphosphoryl)quinoxalin-6-yl)amino)pyrimidin-2-yl)amino)-5-methoxy-2-methylphenyl)piperidin-4-yl)piperazin-1-yl)non-1-yn-1-yl)-1-oxoisoindolin-2-yl)piperidine-2,6-dione]
- GI50 [1]: 1 to 100 nM
- GI50 [2]: 1 to 100 nM
- GI50 (Ba/F3(EML4-ALK) cells): 1 to 100 nM

Compound: COc1cc(N2CCC(N3CCN(CCCCCCCCC#Cc4cccc5c4CN(C4CCC(=O)NC4=O)C5=O)CC3)CC2)c(C)cc1Nc1ncc(Br)c(Nc2ccc3nccnc3c2P(C)(C)=O)n1 (centres unmarked) [Compound C188, 3-(4-(10-(4-(1-(4-((5-bromo-4-((5-(dimethylphosphoryl)quinoxalin-6-yl)amino)pyrimidin-2-yl)amino)-5-methoxy-2-methylphenyl)piperidin-4-yl)piperazin-1-yl)dec-1-yn-1-yl)-1-oxoisoindolin-2-yl)piperidine-2,6-dione]
- GI50 [1]: 1 to 100 nM
- GI50 (Ba/F3(EML4-ALK) cells): > 300 nM

Compound: COc1cc(N2CCC3(CCN(CCCCCCCCC#Cc4cccc5c4CN(C4CCC(=O)NC4=O)C5=O)CC3)CC2)c(C)cc1Nc1ncc(Br)c(Nc2ccc3nccnc3c2P(C)(C)=O)n1 (centres unmarked) [Compound C189, 3-(4-(10-(9-(4-((5-bromo-4-((5-(dimethylphosphoryl)quinoxalin-6-yl)amino)pyrimidin-2-yl)amino)-5-methoxy-2-methylphenyl)-3,9-diazaspiro[5.5]undecan-3-yl)dec-1-yn-1-yl)-1-oxoisoindolin-2-yl)piperidine-2,6-dione]
- GI50 [1]: 1 to 100 nM
- GI50 (Ba/F3(EML4-ALK) cells): 101 to 200 nM

Compound: COc1cc(N2CCC3(CCN(CCCCCC#Cc4ccc5c(c4)CN(C4CCC(=O)NC4=O)C5=O)CC3)CC2)c(C)cc1Nc1ncc(Br)c(Nc2ccc3nccnc3c2P(C)(C)=O)n1 (centres unmarked) [Compound C191, 3-(5-(7-(9-(4-((5-bromo-4-((5-(dimethylphosphoryl)quinoxalin-6-yl)amino)pyrimidin-2-yl)amino)-5-methoxy-2-methylphenyl)-3,9-diazaspiro[5.5]undecan-3-yl)hept-1-yn-1-yl)-1-oxoisoindolin-2-yl)piperidine-2,6-dione]
- GI50 [1]: 1 to 100 nM
- GI50 (Ba/F3(EML4-ALK) cells): 101 to 200 nM

Compound: COc1cc(N2CCC(N3CCN(CCCCCCCC#Cc4ccc5c(c4)CN(C4CCC(=O)NC4=O)C5=O)CC3)CC2)ccc1Nc1ncc(Cl)c(Nc2ccccc2P(C)(C)=O)n1 (centres unmarked) [Compound C195, 3-(5-(9-(4-(1-(4-((5-chloro-4-((2-(dimethylphosphoryl)phenyl)amino)pyrimidin-2-yl)amino)-3-methoxyphenyl)piperidin-4-yl)piperazin-1-yl)non-1-yn-1-yl)-1-oxoisoindolin-2-yl)piperidine-2,6-dione]
- GI50 [1]: 1 to 100 nM
- GI50 (Ba/F3(EML4-ALK) cells): 1 to 100 nM

Compound: COc1cc(N2CCC(N3CCN(CCCCCCCCC#Cc4ccc5c(c4)CN(C4CCC(=O)NC4=O)C5=O)CC3)CC2)ccc1Nc1ncc(Cl)c(Nc2ccccc2P(C)(C)=O)n1 (centres unmarked) [Compound C196, 3-(5-(10-(4-(1-(4-((5-chloro-4-((2-(dimethylphosphoryl)phenyl)amino)pyrimidin-2-yl)amino)-3-methoxyphenyl)piperidin-4-yl)piperazin-1-yl)dec-1-yn-1-yl)-1-oxoisoindolin-2-yl)piperidine-2,6-dione]
- GI50 [1]: 1 to 100 nM
- GI50 (Ba/F3(EML4-ALK) cells): 1 to 100 nM

Compound: COc1cc(N2CCC3(CCN(CCCCCCCOc4cccc5c4CN(C4CCC(=O)NC4=O)C5=O)CC3)CC2)c(C)cc1Nc1ncc(Br)c(Nc2ccc3nccnc3c2P(C)(C)=O)n1 (centres unmarked) [Compound C211, 3-(4-((7-(9-(4-((5-bromo-4-((5-(dimethylphosphoryl)quinoxalin-6-yl)amino)pyrimidin-2-yl)amino)-5-methoxy-2-methylphenyl)-3,9-diazaspiro[5.5]undecan-3-yl)heptyl)oxy)-1-oxoisoindolin-2-yl)piperidine-2,6-dione]
- GI50 [1]: 1 to 100 nM
- GI50 (Ba/F3(EML4-ALK) cells): 1 to 100 nM

Compound: COc1cc(N2CCC(N3CCN(CCCCCCCOc4cccc5c4CN(C4CCC(=O)NC4=O)C5=O)CC3)CC2)c(C)cc1Nc1ncc(Br)c(Nc2ccc3nccnc3c2P(C)(C)=O)n1 (centres unmarked) [Compound C214, 3-(4-((7-(4-(1-(4-((5-bromo-4-((5-(dimethylphosphoryl)quinoxalin-6-yl)amino)pyrimidin-2-yl)amino)-5-methoxy-2-methylphenyl)piperidin-4-yl)piperazin-1-yl)heptyl)oxy)-1-oxoisoindolin-2-yl)piperidine-2,6-dione]
- GI50 [1]: 1 to 100 nM
- GI50 [2]: 1 to 100 nM
- GI50 (Ba/F3(EML4-ALK) cells): 1 to 100 nM

Compound: COc1cc(N2CCC3(CCN(CCOCC#Cc4cc(F)cc5c4CN(C4CCC(=O)NC4=O)C5=O)CC3)CC2)c(C)cc1Nc1ncc(Br)c(Nc2ccc3nccnc3c2P(C)(C)=O)n1 (centres unmarked) [Compound C310, 3-(4-(3-(2-(9-(4-((5-bromo-4-((5-(dimethylphosphoryl)quinoxalin-6-yl)amino)pyrimidin-2-yl)amino)-5-methoxy-2-methylphenyl)-3,9-diazaspiro[5.5]undecan-3-yl)ethoxy)prop-1-yn-1-yl)-6-fluoro-1-oxoisoindolin-2-yl)piperidine-2,6-dione]
- GI50 [1]: 1 to 100 nM
- GI50 (Ba/F3(EML4-ALK) cells): 1 to 100 nM
